These results are taken from patent US11738008B2, “N-methyl-D-aspartic acid receptor modulators” (Emory University, priority 2018, dated 2023).

≈ marks a conversion by molar mass, not a printed value.

The target of data set [1] is T1, GluA1 (Homo sapiens, UniProt P42261).
T1 construct: expressed in transfected cells
In words: Off-target two-electrode voltage clamp assay, GluA1. The data set is classed as cell-based. The conditions noted are these: 10 μM, mean ± SEM. On the procedure:
(§1) The NIMH PDSP is Directed by Bryan L. Roth at the University of North Carolina at Chapel Hill and Project Officer Jamie Driscoll at NIMH, Bethesda Md., USA. Radioligand binding was measured in the presence of 10 μM 1180-420 and 1180-447. […] For experimental details please refer to the PDSP web site https://pdsp.unc.edu/ims/investigator/web/. Both 1180-420 and 1180-447 were also tested at AMPA, nicotinic acetylcholine, serotonin, GABA, and glycine ion channels using a two-electrode voltage clamp assay.
(In general: In two-electrode clamp one electrode senses voltage and the other passes current.)

Data set [2] has as its target T2, α4β2-nACh (Homo sapiens, UniProt P17787+P43681).
T2 construct: expressed in transfected cells
Kind of data set: Off-target two-electrode voltage clamp assay, α4β2-nACh. The data set is classed as cell-based. The conditions noted are these: 10 μM, mean ± SEM. The protocol: as §1

For data set [3], the target named is T3, 5-HT3A (Homo sapiens, UniProt P46098).
T3 construct: expressed in transfected cells
T3 sequence (P46098 24-478, species assumed): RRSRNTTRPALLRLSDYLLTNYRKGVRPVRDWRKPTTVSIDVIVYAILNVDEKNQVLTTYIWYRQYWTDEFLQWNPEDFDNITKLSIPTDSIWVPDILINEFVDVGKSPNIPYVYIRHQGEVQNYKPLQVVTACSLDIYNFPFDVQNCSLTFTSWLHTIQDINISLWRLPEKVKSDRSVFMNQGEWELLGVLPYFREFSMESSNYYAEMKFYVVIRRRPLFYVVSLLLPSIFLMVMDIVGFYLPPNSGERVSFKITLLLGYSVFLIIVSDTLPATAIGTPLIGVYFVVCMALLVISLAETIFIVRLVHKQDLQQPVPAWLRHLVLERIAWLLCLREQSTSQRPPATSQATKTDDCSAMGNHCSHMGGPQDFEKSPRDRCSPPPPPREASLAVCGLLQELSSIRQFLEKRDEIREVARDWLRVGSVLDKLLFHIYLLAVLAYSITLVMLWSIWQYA
In words: Off-target two-electrode voltage clamp assay, 5-HT3A. As to conditions: 10 μM, mean ± SEM. The data set is classed as cell-based. On the procedure: as §1

The target of data set [4] is T4, 5-HT7 (Homo sapiens, UniProt P34969).
T4 construct: NIMH PDSP (assay provider)
T4 sequence (P34969 whole entry, species assumed): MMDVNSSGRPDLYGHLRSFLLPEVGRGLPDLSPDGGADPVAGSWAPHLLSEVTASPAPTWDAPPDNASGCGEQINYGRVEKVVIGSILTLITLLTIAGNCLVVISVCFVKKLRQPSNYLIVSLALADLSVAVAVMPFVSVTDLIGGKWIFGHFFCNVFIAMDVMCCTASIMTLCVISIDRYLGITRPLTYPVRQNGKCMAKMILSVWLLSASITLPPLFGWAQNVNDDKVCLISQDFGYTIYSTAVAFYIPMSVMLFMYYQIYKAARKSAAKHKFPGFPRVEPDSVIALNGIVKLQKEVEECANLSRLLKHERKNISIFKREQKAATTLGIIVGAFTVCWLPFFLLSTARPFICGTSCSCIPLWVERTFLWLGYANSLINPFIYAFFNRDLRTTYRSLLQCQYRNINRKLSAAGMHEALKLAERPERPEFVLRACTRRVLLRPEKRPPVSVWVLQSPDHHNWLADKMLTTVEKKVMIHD
Kind of data set: NIMH PDSP radioligand binding, 5-HT7. As to conditions: read-out: Radioligand binding in 10 μM compound (% control). The protocol: as §1
(§2) Receptor binding profiles of compound 1180-447 were generously provided by the National Institute of Mental Health's Psychoactive Drug Screening Program, Contract # HHSN-271-2013-00017-C(NIMH PDSP). The NIMH PDSP is directed by Bryan L. Roth at the University of North Carolina at Chapel Hill and Project Officer Jamie Driscoll at NIMH, Bethesda Md., USA. Radioligand binding was measured in the presence of 10 μM 1180-447. […] For experimental details please refer to the PDSP web site https://pdsp.unc.edu/ims/investigator/web/.
(§3) The NIMH PDSP is Directed by Bryan L. Roth at the University of North Carolina at Chapel Hill and Project Officer Jamie Driscoll at NIMH, Bethesda Md., USA. Radioligand binding was measured in the presence of 10 μM 1180-420. […] For experimental details please refer to the PDSP web site https://pdsp.unc.edu/ims/investigator/web/.

Data set [5] addresses dopamine transporter (Homo sapiens, UniProt Q01959). In words: NIMH PDSP radioligand binding, dopamine transporter. The conditions noted are these: read-out: Radioligand binding in 10 μM compound (% control). The protocol:
as §1, §2, §3

In data set [6] the target is H2 (Homo sapiens, UniProt P25021). Kind of data set: NIMH PDSP radioligand binding, H2. The conditions noted are these: read-out: Radioligand binding in 10 μM compound (% control). On the procedure: as §1, §2, §3
H2, sequence (P25021 whole entry): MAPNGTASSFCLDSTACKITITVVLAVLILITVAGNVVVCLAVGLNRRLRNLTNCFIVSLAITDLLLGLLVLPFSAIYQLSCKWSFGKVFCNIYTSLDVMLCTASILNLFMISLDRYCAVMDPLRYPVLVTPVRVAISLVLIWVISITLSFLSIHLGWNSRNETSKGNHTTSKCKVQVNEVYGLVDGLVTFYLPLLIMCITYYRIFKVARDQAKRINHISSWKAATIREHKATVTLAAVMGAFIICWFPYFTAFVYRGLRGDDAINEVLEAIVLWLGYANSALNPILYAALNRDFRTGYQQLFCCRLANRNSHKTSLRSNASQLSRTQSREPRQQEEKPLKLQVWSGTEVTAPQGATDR
Data set [7] has as its target β1 (Homo sapiens, UniProt P08588). Kind of data set: NIMH PDSP radioligand binding, β1. The conditions noted are these: read-out: Radioligand binding in 10 μM compound (% control). On the procedure:
as §1, §2, §3

Data set [8] addresses M2 (Homo sapiens, UniProt P08172). Kind of data set: NIMH PDSP radioligand binding, M2. As to conditions: read-out: Radioligand binding in 10 μM compound (% control). On the procedure: as §1, §2, §3
For data set [9] the following is noted: nephelometer, oocyte recording solution.
For data set [10], the target named is T5, α1-Glycine (Homo sapiens, UniProt P23415).
T5 construct: expressed in transfected cells
Kind of data set: Off-target two-electrode voltage clamp assay, α1-Glycine. The data set is classed as cell-based. The conditions noted are these: 10 μM, mean ± SEM. The protocol:
as §1

dopamine transporter, sequence (Q01959 whole entry): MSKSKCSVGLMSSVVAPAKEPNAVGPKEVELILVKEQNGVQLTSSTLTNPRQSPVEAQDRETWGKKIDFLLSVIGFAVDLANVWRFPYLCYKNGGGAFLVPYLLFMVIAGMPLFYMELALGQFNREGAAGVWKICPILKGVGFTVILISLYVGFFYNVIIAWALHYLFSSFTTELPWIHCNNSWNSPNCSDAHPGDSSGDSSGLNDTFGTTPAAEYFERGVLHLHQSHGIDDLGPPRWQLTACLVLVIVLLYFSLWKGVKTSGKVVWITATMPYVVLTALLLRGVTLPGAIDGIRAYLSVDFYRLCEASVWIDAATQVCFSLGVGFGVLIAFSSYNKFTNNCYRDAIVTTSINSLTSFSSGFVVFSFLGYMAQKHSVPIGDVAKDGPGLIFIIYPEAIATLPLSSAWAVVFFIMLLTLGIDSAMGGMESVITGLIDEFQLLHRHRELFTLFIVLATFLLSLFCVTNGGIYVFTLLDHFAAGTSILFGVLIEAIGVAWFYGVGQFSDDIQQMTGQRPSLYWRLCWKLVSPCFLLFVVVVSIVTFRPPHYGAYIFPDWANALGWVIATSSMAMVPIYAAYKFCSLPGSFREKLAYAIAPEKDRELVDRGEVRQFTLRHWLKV
T2 sequence (P43681 29-627 limits assumed): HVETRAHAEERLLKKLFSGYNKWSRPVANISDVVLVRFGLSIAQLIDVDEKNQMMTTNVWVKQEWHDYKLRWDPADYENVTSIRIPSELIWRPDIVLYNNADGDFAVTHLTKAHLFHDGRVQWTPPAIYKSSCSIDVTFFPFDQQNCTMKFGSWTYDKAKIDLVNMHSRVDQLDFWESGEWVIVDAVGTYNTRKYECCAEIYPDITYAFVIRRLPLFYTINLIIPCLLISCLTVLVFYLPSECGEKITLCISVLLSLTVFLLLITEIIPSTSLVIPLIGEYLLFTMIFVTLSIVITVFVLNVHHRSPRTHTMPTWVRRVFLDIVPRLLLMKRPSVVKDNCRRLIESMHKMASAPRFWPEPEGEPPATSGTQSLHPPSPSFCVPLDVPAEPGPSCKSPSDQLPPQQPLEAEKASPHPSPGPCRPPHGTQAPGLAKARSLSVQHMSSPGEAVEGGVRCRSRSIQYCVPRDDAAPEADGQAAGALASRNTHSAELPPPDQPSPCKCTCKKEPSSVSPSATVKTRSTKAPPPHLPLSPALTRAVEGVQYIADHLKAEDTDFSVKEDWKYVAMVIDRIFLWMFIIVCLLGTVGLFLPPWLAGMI
T2 sequence (P17787 26-502): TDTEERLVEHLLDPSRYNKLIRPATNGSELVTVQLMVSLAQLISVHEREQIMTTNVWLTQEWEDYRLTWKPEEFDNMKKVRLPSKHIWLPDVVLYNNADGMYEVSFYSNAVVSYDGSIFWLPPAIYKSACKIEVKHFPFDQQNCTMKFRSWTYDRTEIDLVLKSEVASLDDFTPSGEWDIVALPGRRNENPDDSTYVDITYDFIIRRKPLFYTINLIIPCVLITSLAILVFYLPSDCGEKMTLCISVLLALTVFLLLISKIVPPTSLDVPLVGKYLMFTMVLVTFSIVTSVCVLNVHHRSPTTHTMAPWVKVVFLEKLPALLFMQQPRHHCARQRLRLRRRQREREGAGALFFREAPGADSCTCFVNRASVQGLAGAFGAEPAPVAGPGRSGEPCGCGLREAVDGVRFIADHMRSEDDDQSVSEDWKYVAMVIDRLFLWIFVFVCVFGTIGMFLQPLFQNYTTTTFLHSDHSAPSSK
T1 sequence (P42261 19-906, species assumed): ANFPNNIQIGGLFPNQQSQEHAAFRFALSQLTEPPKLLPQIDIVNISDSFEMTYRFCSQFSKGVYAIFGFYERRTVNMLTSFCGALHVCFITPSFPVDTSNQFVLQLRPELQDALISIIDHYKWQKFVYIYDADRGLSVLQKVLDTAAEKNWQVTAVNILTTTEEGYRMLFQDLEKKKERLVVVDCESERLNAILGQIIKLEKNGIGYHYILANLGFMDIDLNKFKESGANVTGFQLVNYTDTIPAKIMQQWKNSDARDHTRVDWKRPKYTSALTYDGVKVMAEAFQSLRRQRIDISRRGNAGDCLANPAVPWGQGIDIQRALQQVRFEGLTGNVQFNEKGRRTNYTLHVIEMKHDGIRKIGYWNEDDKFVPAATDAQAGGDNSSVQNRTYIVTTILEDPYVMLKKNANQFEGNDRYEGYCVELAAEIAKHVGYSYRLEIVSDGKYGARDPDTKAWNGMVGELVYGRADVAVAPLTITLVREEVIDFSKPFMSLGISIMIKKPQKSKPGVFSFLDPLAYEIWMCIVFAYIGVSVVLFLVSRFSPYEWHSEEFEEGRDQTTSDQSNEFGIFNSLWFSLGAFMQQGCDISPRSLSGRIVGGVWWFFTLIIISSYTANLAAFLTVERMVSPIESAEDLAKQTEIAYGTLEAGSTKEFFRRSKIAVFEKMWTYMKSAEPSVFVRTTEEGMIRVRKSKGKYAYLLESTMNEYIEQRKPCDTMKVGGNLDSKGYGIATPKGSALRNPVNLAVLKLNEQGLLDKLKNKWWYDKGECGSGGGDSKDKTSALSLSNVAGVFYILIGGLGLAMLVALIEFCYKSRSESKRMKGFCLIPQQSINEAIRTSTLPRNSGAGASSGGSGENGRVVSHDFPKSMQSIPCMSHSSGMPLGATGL
M2, sequence (P08172 whole entry): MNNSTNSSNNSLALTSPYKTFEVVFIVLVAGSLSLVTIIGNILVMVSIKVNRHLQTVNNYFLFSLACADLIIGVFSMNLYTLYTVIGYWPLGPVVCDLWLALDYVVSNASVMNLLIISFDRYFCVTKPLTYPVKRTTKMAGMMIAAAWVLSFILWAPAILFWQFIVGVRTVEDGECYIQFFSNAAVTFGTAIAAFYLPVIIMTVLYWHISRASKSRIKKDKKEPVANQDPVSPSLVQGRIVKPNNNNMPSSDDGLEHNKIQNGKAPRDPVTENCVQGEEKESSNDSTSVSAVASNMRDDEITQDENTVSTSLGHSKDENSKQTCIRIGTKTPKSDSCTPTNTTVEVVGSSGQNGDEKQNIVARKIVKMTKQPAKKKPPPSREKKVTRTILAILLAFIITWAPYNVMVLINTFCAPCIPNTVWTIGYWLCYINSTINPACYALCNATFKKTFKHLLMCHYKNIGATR
β1, sequence (P08588 whole entry): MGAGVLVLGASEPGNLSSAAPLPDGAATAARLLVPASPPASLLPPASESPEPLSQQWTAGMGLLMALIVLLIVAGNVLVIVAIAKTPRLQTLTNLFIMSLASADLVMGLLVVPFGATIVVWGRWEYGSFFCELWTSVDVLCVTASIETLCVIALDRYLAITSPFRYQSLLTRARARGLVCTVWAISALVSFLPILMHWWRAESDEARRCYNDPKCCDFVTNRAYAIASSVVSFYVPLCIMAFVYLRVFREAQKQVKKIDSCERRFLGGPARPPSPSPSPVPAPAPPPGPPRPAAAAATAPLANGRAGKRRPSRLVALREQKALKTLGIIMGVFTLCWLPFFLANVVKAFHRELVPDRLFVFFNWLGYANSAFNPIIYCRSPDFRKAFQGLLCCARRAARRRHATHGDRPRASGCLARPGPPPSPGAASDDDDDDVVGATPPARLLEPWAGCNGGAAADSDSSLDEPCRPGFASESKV

By Solubility is commonly meant how much of the substance goes into solution per volume. A high value points to much dissolved substance. In the case of `COc1ccc(OCC2c3cccn3CC(=O)N2Cc2cccc(C(F)(F)F)c2)cc1` (racemic) [1180-447, 1-((4-Methoxyphenoxy)methyl)-2-(3-(trifluoromethyl)benzyl)-1,2-dihydropyrrolo[1,2-a]pyrazin-3(4H)-one], the “% control response” value in data set [1] is given as 96.8 ± 13.3 % control response; in data set [2], 52.7 ± 6.3 % control response; in data set [3] it was 98.1 ± 10.4 % control response. The remaining activity at 10 µM in data set [4] worked out at 83%; in [5], 76%; in data set [6], 103%; in data set [7], 80%; in [8] it was 90%. Besides, the “Solubility” value in data set [9] was 57 µM (≈ 24.5 µg/mL).
As to `COc1ccc(OCC2c3cccn3CCN2C(=O)c2cccc(Cl)c2)cc1` (centres unmarked) [1180-420, (3-Chlorophenyl)(1-((4-methoxyphenoxy)methyl)-3,4-dihydropyrrolo[1,2-a]pyrazin-2(1H)-yl)methanone], the “% control response” value in data set [1] was 98.9 ± 13.7 % control response; in data set [2], 56.4 ± 5.3 % control response; in data set [10] it was 77.6 ± 4.9 % control response. Further, the remaining activity at 10 µM worked out at 115% in [4]; 98% in data set [5]; 75% in data set [6]; 98% in [7]; 110% in data set [8].
